On to `CC(C(O)CCC1CC1)C1CCC2C3CC=C4CC(O)CCC4(C)C3CCC12C` (stereo unspecified), for which the melting point lay in the range of 174 to 175 °C.
Next, `Cc1ccc(C(C#N)=NOS(C)(=O)=O)cc1C`: 91 to 95 °C; `O=[N+]([O-])c1ccc(-c2ccc([N+](=O)[O-])cc2C(F)(F)F)c(C(F)(F)F)c1`: 140 °C; `CCOc1nn(Cc2ccnc(OCc3nc(-c4ccccc4)oc3C)c2)cc1CCC(=O)O`: 114 to 115 °C.
Next, `Clc1ccc(-c2cn3cccc4c3c2CCC4)cc1`: 131 °C; `CC(OC(=O)OC1CCCCC1)OC(=O)C1(C(=O)OC(C)OC(=O)OC2CCCCC2)Oc2ccc(C[C@@H](C)NC[C@H](O)c3cccc(Cl)c3)cc2O1` (stereo partly specified): 78 to 81 °C; `COc1c(OC)c(OC(C)=O)c2ccc(Cl)cc2c1O`: 155 to 156 °C.
In the case of `CC(=O)ON=C(N)c1cccc(OC(C)=O)c1`, the melting point came out at 128 °C.
With `O=C(Nc1ccc(Cl)c(C(F)(F)F)c1)c1ccccc1[N+](=O)[O-]`, the melting point is 165 to 169 °C.
On to `COC(=N)N1CCC(c2n[nH]c3cc(F)ccc23)CC1`, for which the melting point is 162 to 164 °C.
Next, `Cc1nccn1CCC(C(N)=O)(c1ccccc1)c1ccccc1`: 191 to 193 °C; `OC1CSC(Oc2cccc3ccoc23)C(O)C1O` (stereo unspecified): 160 °C; `COC(=O)C1(C(=O)OC)CCn2c(C(=O)c3ccccc3)cc(Br)c21`: 109 to 110 °C.
With `CCc1ccc2c3c(ccc2n1)OCC(CN1CC=C(c2c[nH]c4ccccc24)CC1)O3` (stereo unspecified) the figure was 190 °C; with `CC(C)c1cccc(C(C)C)c1NC(=O)C(Cc1ccccc1)NC(=O)NCc1ccccc1` (stereo unspecified), 240 to 241 °C; with `Cc1ccc(S(=O)(=O)OCC2COc3ccccc3O2)cc1` (stereo unspecified), 79 °C.
`Cc1cn(-c2cc([N+](=O)[O-])cc(C(F)(F)F)c2)cn1` came in with a melting point of 118 to 119 °C.
With `CCOC(=O)Cc1ccc(OCCCN2CCC(C(O)(c3ccc(F)cc3)c3ccc(F)cc3)CC2)c(OC)c1` the figure was 110 to 112 °C.
With `COc1cc(C)nc(NC(=O)NS(=O)(=O)c2ccccc2C2CC2(Cl)Cl)n1` (stereo unspecified) the figure was 187 to 191 °C.
With `CC#CNC(=C[N+](=O)[O-])NCCSCc1ccccn1` the figure was 147 to 148 °C.
`O=C(NCC12CC3CC(CC(C3)C1)C2)c1c(Cl)ccc2nc(N3C[C@@H]4C(C(=O)O)[C@@H]4C3)ccc12` (stereo partly specified): the melting point fell in the range of 175 to 180 °C.
Next, `CCc1nn(Cc2ccccn2)c(C(N)=O)c1NC(=O)c1cc(S(C)(=O)=O)ccc1OCC(C)C`: 225 to 227 °C; `O=C1Nc2ccccc2CCC1NC(CCc1ccccc1)C(=O)OCc1ccccc1` (stereo unspecified): 139 to 141 °C; `COc1ccc(Nc2ccc(Nc3ccnc4cc(-c5cccc([N+](=O)[O-])c5)sc34)cc2)cc1`: 175 to 184 °C.
`CCc1nc(C)c(C(C)(O)c2ccsc2)o1` (stereo unspecified) registered a melting point of 77.5 to 79 °C.
Regarding `O=C(O)C(=O)c1ccc(OCCOc2ccc3ccccc3c2)c(Cl)c1`, the melting point lay in the range of 167 to 168 °C.
Compound `CC(C)(C)c1cc(=S)cc(C(C)(C)C)s1` showed a melting point of 162 °C.
Next, `CCOC(=O)C1CNc2c(OC)cc(Cc3cnc(N)nc3N)c(OC)c2C1` (stereo unspecified): 186 to 188 °C; `COc1cc(OC)c2c(=O)c(O)c(-c3ccc(OC)c(OC)c3)oc2c1`: 192 to 194 °C; `CN(C)CC1CCC2(CC1)Nc1cc(Cl)c(S(N)(=O)=O)cc1S(=O)(=O)N2` (stereo unspecified): 273 °C.
For `CC(C)(C)c1ccccc1-n1cnnc1C(F)(F)F`, the melting point was 120 °C.
Next, `CC(=O)N[C@H]1CC[C@H](CCN2CCC(c3cccc4c3CCO4)CC2)CC1`: 183 °C; `CC1=C(/C=C/C(C)=C/C=C/C(C)=C/C(=O)O)C(C)(C)CCC1=O`: 184 to 187 °C; `CCOC(=O)c1c(CN(CC)CC)nc2sc3c(c2c1-c1ccc(OC)c(OC)c1)CCN=C3`: 118 to 120 °C.
For the compound `CNc1c([N+](=O)[O-])ccc(Cl)c1C#N`, the melting point lay in the range of 167 to 170 °C.
Next, `OCCOCCn1c(NC2CCNCC2)nc2ccccc21`: 164 °C.
As to `CCONC(=O)c1ccc(-c2cccc(CN(C)Cc3ccccc3)c2)cn1`, the melting point lay in the range of 85 to 90 °C.
With `CC(C)(C)c1ccc(C(=O)Nc2cn3cc(F)ccc3n2)cc1` the figure was 250 to 251 °C; with `O=C(O)C1CCC2C(=O)OC(=O)C2C1` (stereo unspecified), 250 °C.
Consider `COC(=O)c1ccc(-c2nc(-c3cccc(Cl)c3)cs2)cc1`, for which the melting point was in the range of 150 to 151 °C.
The compound `NC(=O)c1cc2c(Oc3ccc(C(F)(F)F)cc3)cnc(Cl)c2s1` returned a melting point of 175 to 176 °C.
Take `c1cncc(-c2nc(COc3ccc(CCCn4ccnc4)cc3)cs2)c1`: the melting point fell in the range of 67 to 68 °C.
For the compound `CC(C)C(C(=O)O)N1C(=O)C2C3C=CC(CC3)C2C1=O` (stereo unspecified), the melting point was 156 °C.
As for `COc1cc(Nc2nccc(-c3ccc(NCCCCO)nc3)n2)cc(OC)c1OC`, the melting point was 170 to 171 °C.
`Cc1cccc(C)c1OC(C)C(=O)OC1CC(O)C=C2C=CC(C)C(CCC3CC(O)CC(=O)O3)C21` (mixture of isomers): the melting point lay within 85 to 88 °C.
Next, `CCc1ccc(C(=O)Oc2ccc(C(=O)O)cc2)cc1C12CC3CC(CC(C3)C1)C2`: 239 to 241 °C; `CN(C)C1(c2ccccc2Cl)C(=O)N(Cc2ccc(C(=O)NC(C)(C)C)cc2)c2ccc(Cl)cc21` (stereo unspecified): 177 to 178 °C.
With `Cc1c(N2C[C@@H]3[C@@H](O)CCN3C2=O)ccc(C#N)c1Cl` the figure was 148 to 149 °C.
With `O=P(O)(O)C1(P(=O)(O)O)Cc2ccccc2C1` the figure was 55 to 57 °C; with `CCC(NC(=O)OC)c1ccc(Cl)c2nc3n(c12)CCCN3c1ccc(Cl)cc1Cl` (stereo unspecified), 201 to 203 °C; with `Cc1cccc2sc(-c3ccccn3)nc(=O)c12`, 151 °C.
`O=[N+]([O-])c1sc(-c2cccnc2)nc1Cl` yielded a melting point of 110 to 112 °C.
Turning to `CC(C)(C)C(=O)Nc1c(F)cc(F)cc1Oc1ccc(C(C)(C)C(=O)O)cc1`, the melting point is 168 to 170 °C.
Next, `O=C1NCC(Cc2ccccc2Oc2ccccc2)O1` (stereo unspecified): 100 to 101 °C; `COC(=O)CCc1ccc(N2C(=O)CN(c3ccc(C(=N)NC(=O)OC)cc3)C2=O)cc1`: 250 °C.
Next, `N#CCc1cccc2c(-c3ccc(C(F)(F)F)cc3)nccc12`: 122 to 123 °C; `CC1C(=O)Oc2c1cccc2S(=O)c1ccccc1Cl` (stereo unspecified): 120 to 122 °C.
With `CCn1cc(C(=O)O)c(=O)c2cc(F)c(N3CCN(S(=O)(=O)c4ccc(F)cc4)CC3)c(F)c21` the figure was 243 to 244 °C; with `O=[N+]([O-])c1ccc(C=NCCc2cccs2)cc1`, 83.9 to 84.4 °C; with `COC(=O)c1cc(N)c(C)s1`, 90 to 91 °C.
The compound `CCCCc1cn(CCCC)c(=O)n1Cc1ccc(-c2cnccc2-c2nnn[nH]2)cc1` had a melting point of 128 to 130 °C.
With `Cn1cnc2c(NC3CCCC3)ncnc21` the figure was 108 to 109 °C; with `COc1ccccc1[C@@]1(O)[C@H](O)CC(c2ccccc2)(c2ccccc2)[C@@H]2CN(C(=O)Cc3cn(C)c4ccccc34)C[C@@H]21` (racemic), 240 °C.
Next, `CCC1Cc2cc(OC(C)(C)C(=O)O)c(Cl)c(Cl)c2C1=O` (stereo unspecified): 165 to 166 °C; `Cn1cc(C=O)c(-c2ccc([N+](=O)[O-])o2)n1`: 181 to 182 °C; `CC(=NNc1ccc(-c2n[nH]c(=O)cc2C)cc1)c1ccc(O)cc1O`: 299 to 303 °C.
In the case of `Cc1cc2oc(S(=O)(=O)N=CN(C)C)cc2cn1`, the melting point lay in the range of 175 to 177 °C.
`CNN(NC)C(=O)Nc1cccc2c1C(=O)c1c-2n[nH]c1-c1ccc(C)s1` yielded a melting point greater than 280 °C.
Compound `CCc1ccnc(C(=O)c2[nH]c3cc(Cl)ccc3c2CC(=O)O)c1F` showed a melting point of 193 to 194 °C.
Next, `CCN(CC)c1nc(Cl)c([N+](=O)[O-])s1`: 85 °C.
With `CSC1CCC2C3CCC4=CC(=O)C=CC4(C)C3(F)C(OC(C)=O)CC12C` (stereo unspecified) the figure was 169 to 170 °C; with `Cn1c(C(N)=O)c(-c2ccc(NC(=O)Nc3cc(C(F)(F)F)ccc3F)cc2)c2ccccc21`, greater than 260 °C.
The compound `O=C(O)c1cc2ccc(Cl)cc2[nH]c1=O` displayed a melting point of 317 to 318 °C.
In turn, `COc1cc(CCNC(=O)N(C)O)ccc1OCc1ccccc1` showed a melting point of 109 to 111 °C.
With `CC(=O)OC1CCC2C3CCC4=C([N+](=O)[O-])C(=O)CCC4(C)C3CCC12C` (stereo unspecified) the figure was 216 to 217 °C; with `Cc1cccc(Nc2ccccc2C(=O)N(C)O)c1C`, 70 to 71 °C.
`CN1C(=O)CCC2(C)c3ccc(Sc4ccc5ccccc5n4)cc3CCC12` (single isomer, unassigned; (+)) displayed a melting point of 175 to 177 °C.
Compound `COC(=O)ON=C(N)c1ccc(C(=O)OC(C)(C)C)cc1` registered a melting point of 157 to 159 °C.
Next, `C=CCc1cc(C(=O)OCC)ccc1O`: 67 to 70 °C.
`CC(C)(CNc1ccnc2cc(Cl)ccc12)NCc1ccc(Cl)c(Cl)c1`: the melting point was 178 to 179 °C.
Compound `COc1cc(CCC(=O)O)ccc1OCCCc1cn(-c2ccc(C(F)(F)F)cn2)nc1C(C)C` came in with a melting point of 118 to 119 °C.
Turning to `COC(=O)COc1ccc(Cn2c(-c3ccc(OC4CCCC4)cc3)c(C)c3cc(OCc4ccccc4)ccc32)cc1`, the melting point was 96 to 98 °C.
Next, `CCCC(=O)N(Cc1ccc(-c2ccccc2-c2nc(=O)s[nH]2)cc1)c1sc(C)cc1C(=O)OC`: 131 to 132 °C; `CC[C@@H](CNc1ccc(C)cc1C)NS(=O)(=O)c1c(N)cc(Cl)cc1Cl`: 151 °C.
Next, `CCOc1cc(C(CC#N)N2C(=O)c3cccc([N+](=O)[O-])c3C2=O)ccc1OC` (stereo unspecified): 156 to 157 °C; `CCOC(=O)CCCN1CCC2(CC1)CN(c1ccc(C#N)cc1)C(=O)O2`: 78 to 80 °C.

For orientation: melting point means the temperature, or range, at which the solid turns liquid.

For the origin of these results see a melting point compilation (Tetko et al.; mined from patent text by program, amines drawn as free bases though some values may be those of a salt).
